We go through four compounds from patent publication US11274095B2, “Modulators of methyl modifying enzymes, compositions and uses thereof” (Constellation Pharmaceuticals, Inc., priority 2018, dated 2022).

Series [1] concerns the target T1, PRC2 containing wt EZH2 (Homo sapiens (Human), UniProt Q15910). The series is described as follows: EZH2 biochemical assay (IC50), 3H-SAM incorporation into biotinylated H3 peptide. As to conditions: 30 pM PRC2 with wt EZH2, 3-5 h pre-incubation. The procedure: EZH2 biochemical assay (IC50): Compound potencies were assessed through incorporation of ^3H-SAM into a biotinylated H3 peptide. Specifically, 30 pM PRC2 containing wt EZH2 (pentameric complex prepared in-house) was pre-incubated with 450 nM SAM, 450 nM ^3H-SAM, 2 μM H3K27me3 activating peptide (H2N-RKQLATKAAR(Kme3)SAPATGGVKKP-amide) and compounds (as 10 point duplicate dose response titrations in DMSO, final assay 0.8% DMSO (v/v)) for 3-5 h in 50 mM Tris (pH 8.5), 1 mM DTT, 0.07 mM Brij-35, 0.1% BSA, and 0.8% DMSO in a total volume of 12.5 μl. Reaction was initiated with biotinylated H3 substrate peptide (H2N-RKQLATKAAR(Kmel)SAPATGGVKKP-NTPEGBiot) as a 2 μM stock in 12.5 μl of buffer and allowed to react at room temperature for 18-22 h. Quenching was accomplished by addition of 20 μl of STOP solution (50 mM Tris (pH 8.5), 200 mM EDTA, 2 mM SAH). 35 μl of the quenched solution was transferred to streptavidin coated FlashPlates (PerkinElmer), incubated 1-2 h, washed, and read in a TopCount Reader (PerkinElmer). IC50s were calculated in Genedata Screener using non-linear least square four parameter fits, where the four parameters were IC50, Hill slope, pre-transitional baseline (0% INH), and post-transitional baseline (100% INH).

In a further series the test system is H3K27me3 in Hela cells. The series is described as follows: H3K27me3 Alpha Hela Assay (AlphaLISA). Format: cell-based. As to conditions: Homo sapiens, HeLa, 72 h. The procedure:
H3K27me3 Alpha Hela Assay (AlphaLISA). Ten different doses of each test compound (in a series of 3-fold dilutions) were plated in duplicate 384-well tissue culture treated plates (Catalog #6007680; Perkin Elmer, Waltham, Mass.). Hela cells grown in culture were trypsinized and counted using a Countess® cell counter (Catalog #C10281; Life Technologies, Grand Island, N.Y.). Cell were diluted to 67,000 cells per mL in10% DMEM (Catalog #10569-010 Life Technologies, Grand Island, N.Y.) and 15 μL (1,000 cells) were plated into each well using the Biotek MicroFlo™ Select Dispenser (BioTek Instruments, Inc. Vermont, USA),) of the 384-well plate. Plates were incubated at 37° C./5% CO2 for 72 hrs. One of the duplicate plates was processed for HeLa assay and the other for viability. 5 μL of Cell-Histone Lysis buffer (1×) (Catalog #AL009F1 Perkin Elmer; Waltham, Mass.) per well was added to the plate processed for AlphaLISA and the plate was incubated at RT for 30 minutes on a plate shaker with low speed (Model# 4625-Q Thermo Scientific; Waltham, Mass.). Then, 10 μL per well Histone Extraction buffer (catalog #AL009F2; Perkin Elmer; Waltham, Mass.) was added and the plate further incubated at RT for 20 min on plate shaker with low speed. Next, 10 μL of 5× mix of anti-K27me3 acceptor beads plus Biotinylated anti-Histone H3 (C-ter) Antibody (diluted to 3 nM final) (Catalog #AL118 Perkin Elmer; Waltham, Mass.) was added in each well. Dilution of the acceptor beads and anti-Histone H3 was done in 1× Histone Detection buffer (Catalog #AL009F3 Perkin Elmer; Waltham, Mass.) which was produced by diluting the 10× stock provided. The plate was sealed with an aluminum plate sealer and incubated at 23° C. for 60 min. Next, 10 μL 5× solution of Streptavidin Donor beads were added (Catalog #6760002 Perkin Elmer; Waltham, Mass.) (20 μg/mL final in 1× Histone Detection Buffer), =plate was sealed with Aluminum plate sealer and incubated at 23° C. for 30 min. The plates were then read using an EnVision-Alpha Reader (model #2104 Perkin Elmer; Waltham, Mass.). […]
In general terms: Bead proximity is the source of the signal in Alpha formats.

A further series has as its system Karpas-422 cell lines. The series is described as follows: Karpas-422 viability assay (Cell Titer-Glo, Day 8). Format: cell-based. As to conditions: Homo sapiens, KARPAS-422, 192 h, Cell Titer-Glo on Day 8. The protocol: Karpas-422 cell lines were obtained from DSMZ (Braunschweig, Germany) and were grown in RPMI-1640 media. All media contained 10% fetal bovine serum (FBS) and 1% penicillin/streptomycin (Invitrogen). 20K cells per well were plated onto 96 well compound coated plates. Cells were split and seeded at original plating density (based on the DMSO well counts) every 4 days into plates containing fresh EZH2 inhibitors. Relative cell numbers were assessed by Cell Titer-Glo luminescent cell viability assay (Promega) on Day 8. GraphPad Prism 5 was used for curve fitting and GI50 values were reported.
A general note: In ATP-based viability assays light output follows the ATP content of the culture.

Series [2] is described as follows: Cellular permeability in MDCK assay. In kind it is in vitro ADME. To be noted: dog, pH 7.4, MDCK II, with P-gp inhibitor GF120918 10 μM; for efflux ratio at 2.5 h, 2 μM: Papp(BA)/Papp(AB). The protocol: Cell culture: MDCK II cells (obtained from Piet Borst at the Netherlands Cancer Institute) were seeded onto […] (PET) in 96-well BD insert systems at 2.5×10^5 cells/mL until to 4-7 days for confluent cell monolayer formation.
Experimental procedure: Test and reference compounds (nadolol, metoprolol and digoxin) were diluted with transport buffer (HBSS with 10mM Hepes, pH7.4) from stock solution to a concentration of 2 μM (<1% DMSO) and applied to the apical (A) or basolateral (B) side of the cell monolayer. Permeation of the test compounds from A to B direction or B to A direction was determined in duplicate with P-gp inhibitor (GF120918, 10 μM). Digoxin was tested at 10 μM from A to B direction or B to A direction with/without P-gp inhibitor (GF120918, 10 μM) as well, while nadolol and metoprolol were tested at 2 μM in A to B direction without P-gp inhibitor (GF120918, 10 μM) in duplicate. The plate was incubated for 2.5 hours in CO2 incubator at 37±1° C., with 5% CO2 at saturated humidity without shaking. In addition, the efflux ratio of each compound was also determined. Test and reference compounds were quantified by LC/MS/MS analysis based on the peak area ratio of analyte/IS. After transport assay, Lucifer yellow rejection assay are applied to determine the cell monolayer integrity. Buffers are removed from both apical and basolateral chambers, followed by the addition of 75 μL of 100 μM lucifer yellow in transport buffer and 250 μL transport buffer in apical and basolateral chambers, respectively. The plate is incubated for 30 minutes at 37° C. with 5% CO2 and 95% relative humidity without shaking. After 30 minutes incubation, 20 μL of lucifer yellow samples are taken from the apical sides, followed by the addition of 60 μL of Transport Buffer. And then 80 μL of lucifer yellow samples are taken from the basolateral sides. The relative fluorescence unit (RFU) of lucifer yellow is measured at 425/528 nm (excitation/emission) with a Molecular Device M2e plate reader.
Data analysis: The apparent permeability coefficient Papp (cm/s) was calculated using the equation: Papp=(dCr/dt)×Vr/(A×C0) Where dCr/dt is the cumulative concentration of compound in the receiver chamber as a function of time (μM/s); Vr is the solution volume in the receiver chamber (0.075 mL on the apical side, 0.25 mL on the basolateral side); A is the surface area for the transport, i.e. 0.0804 cm2 for the area of the monolayer; C0 is the initial concentration in the donor chamber (μM).
The efflux ratio was calculated using the equation: Efflux Ratio=Papp(BA)/Papp(AB) Percent recovery was calculated using the equation: % Recovery=100×[(Vr×Cr)+(Vd×Cd)]/(Vd×C0) Where Vd is the volume in the donor chambers (0.075 mL on the apical side, 0.25 mL on the basolateral side); Cd and Cr are the final concentrations of transport compound in donor and receiver chambers, respectively.
Percent of lucifer yellow in basolateral well is calculated using the equation:
[formula] where RFUApical and RFUBasolateral are the relative fluorescence unit values of lucifer yellow in the apical and basolateral wells, respectively; VApical and VBasolateral are the volume of apical and basolateral wells (0.075 mL and 0.25 mL), respectively. Percent lucifer yellow should be less than 2.

Series [3] concerns the target T1, PRC2 containing wt EZH2. Description: EZH2 residence time assay (100-fold dilution of enzyme-inhibitor complex). Format: biochemical. As to conditions: recovery of enzyme activity after 100-fold dilution; read-out: EZH2 residence time (converted). The protocol: EZH2 residence time assay: Compound residence times were assessed by monitoring the recovery of enzyme activity following a 100-fold dilution of pre-formed enzyme-inhibitor complex (dilution reaction), and comparing it to the activity of an undiluted control with the same final concentrations of all reagents (control reaction). Enzyme activity was measured by incorporation of ^3H-SAM into a biotinylated H3 peptide. For the dilution reaction, 20 nM PRC2 containing wt EZH2 (pentameric complex prepared in-house) was pre-incubated with 1 μM activating peptide (H2N-RKQLATKAAR(Kme3)SAPATGGVKKP-amide) and compound at 600 times its Ki for 2 h in 40 μL of buffer (50 mM Tris pH 8.5, 4 mM DTT, 1 mM MgCl2, 0.07 mM Brij-35, and 0.1 mg/mL BSA), then diluted 100-fold and the reaction initiated by transferring 1.4 μL to a 138.6 μL volume of buffer containing 1 μM activating peptide, 5.05 μM substrate peptide (H2N-[…]-NTPEGbiot), 1.01 μM SAM, and 1.01 μM ^3H-SAM. […] Reactions were quenched at various time points spanning up to 10 hours, by transferring 8μL aliquots from the reaction vessel to a plate containing 8μL per well of STOP solution (50 mM Tris pH 8.5, 200 mM EDTA, 2 mM SAH). After the last time point, 12 μL of the quenched solutions were transferred to a streptavidin coated FlashPlate (PerkinElmer) containing 40 μL per well of STOP solution, incubated 1-8 h, washed, and read in a TopCount plate reader (PerkinElmer).
A custom script was used to fit control reaction progress data to a straight line and dilution reaction progress data:
[formula] Where y is the product formed, t is the reaction time, vi is the initial velocity, vs is the steady state velocity, and kobs is the rate constant for the transition from the initial velocity phase of the curve to the steady state velocity phase of the curve. In fitting the dilution reaction progress data, vs was constrained to the slope of the line fitted to the control reaction progress data. The fitted value of kobs was then transformed into residence time:
[formula] Where τ is residence time, Ki is the inhibition constant, [EI] is the calculated equilibrium concentration of enzyme-inhibitor complex, [E] is the calculated equilibrium concentration of free enzyme, and [I] is the calculated equilibrium concentration of free inhibitor.

T1 sequence (Q15910 whole entry): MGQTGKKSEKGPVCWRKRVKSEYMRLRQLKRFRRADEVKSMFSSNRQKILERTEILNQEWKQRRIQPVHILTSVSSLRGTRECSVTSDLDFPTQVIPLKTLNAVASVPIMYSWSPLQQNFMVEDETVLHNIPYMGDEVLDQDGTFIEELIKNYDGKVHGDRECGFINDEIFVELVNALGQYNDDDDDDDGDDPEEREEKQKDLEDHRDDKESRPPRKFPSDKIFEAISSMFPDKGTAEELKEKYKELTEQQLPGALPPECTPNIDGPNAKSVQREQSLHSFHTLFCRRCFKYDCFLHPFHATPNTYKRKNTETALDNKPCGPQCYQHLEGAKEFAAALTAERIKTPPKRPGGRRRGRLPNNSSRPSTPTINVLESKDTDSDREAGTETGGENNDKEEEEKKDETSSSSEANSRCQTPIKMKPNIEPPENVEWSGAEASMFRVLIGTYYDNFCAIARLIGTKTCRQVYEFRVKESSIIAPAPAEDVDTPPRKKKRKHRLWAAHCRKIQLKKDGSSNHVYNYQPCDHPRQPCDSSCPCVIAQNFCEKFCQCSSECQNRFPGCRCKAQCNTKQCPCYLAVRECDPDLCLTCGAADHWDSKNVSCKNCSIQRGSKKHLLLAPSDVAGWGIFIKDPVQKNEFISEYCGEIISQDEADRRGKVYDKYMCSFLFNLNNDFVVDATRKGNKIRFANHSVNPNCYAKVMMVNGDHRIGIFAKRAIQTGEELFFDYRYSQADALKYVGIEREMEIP
T1 sequence (O75530 whole entry partner): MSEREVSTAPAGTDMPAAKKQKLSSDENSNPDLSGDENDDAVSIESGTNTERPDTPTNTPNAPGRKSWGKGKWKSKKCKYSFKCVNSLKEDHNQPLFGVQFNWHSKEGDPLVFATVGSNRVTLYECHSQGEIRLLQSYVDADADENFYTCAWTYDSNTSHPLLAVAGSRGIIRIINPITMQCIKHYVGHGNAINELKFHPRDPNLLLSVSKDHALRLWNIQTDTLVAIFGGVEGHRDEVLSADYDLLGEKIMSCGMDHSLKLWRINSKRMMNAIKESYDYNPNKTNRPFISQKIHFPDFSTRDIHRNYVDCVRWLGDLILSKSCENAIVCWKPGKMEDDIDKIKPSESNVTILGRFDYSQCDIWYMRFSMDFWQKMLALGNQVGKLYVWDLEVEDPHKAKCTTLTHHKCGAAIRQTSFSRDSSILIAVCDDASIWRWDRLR
T1 sequence (Q15022 whole entry partner): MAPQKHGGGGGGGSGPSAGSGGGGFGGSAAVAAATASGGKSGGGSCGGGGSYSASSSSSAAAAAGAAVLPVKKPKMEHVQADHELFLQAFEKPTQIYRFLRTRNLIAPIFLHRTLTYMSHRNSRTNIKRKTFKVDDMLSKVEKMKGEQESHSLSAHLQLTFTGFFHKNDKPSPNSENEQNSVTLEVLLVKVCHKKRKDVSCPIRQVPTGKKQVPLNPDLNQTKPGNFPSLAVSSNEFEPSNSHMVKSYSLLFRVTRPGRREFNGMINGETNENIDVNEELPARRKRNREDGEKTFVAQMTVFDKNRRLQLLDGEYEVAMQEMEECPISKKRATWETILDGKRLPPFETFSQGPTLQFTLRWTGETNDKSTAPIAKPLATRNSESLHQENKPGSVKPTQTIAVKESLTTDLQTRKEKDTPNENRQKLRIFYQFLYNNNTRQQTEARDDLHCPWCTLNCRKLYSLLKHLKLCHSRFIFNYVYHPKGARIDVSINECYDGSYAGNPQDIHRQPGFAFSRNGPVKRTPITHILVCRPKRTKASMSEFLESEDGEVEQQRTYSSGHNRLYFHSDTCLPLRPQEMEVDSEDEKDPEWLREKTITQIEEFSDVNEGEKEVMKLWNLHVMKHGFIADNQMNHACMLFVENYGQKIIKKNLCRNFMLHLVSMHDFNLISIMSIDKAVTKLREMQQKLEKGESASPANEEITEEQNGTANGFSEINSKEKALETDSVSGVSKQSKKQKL
T1 sequence (Q09028 whole entry partner): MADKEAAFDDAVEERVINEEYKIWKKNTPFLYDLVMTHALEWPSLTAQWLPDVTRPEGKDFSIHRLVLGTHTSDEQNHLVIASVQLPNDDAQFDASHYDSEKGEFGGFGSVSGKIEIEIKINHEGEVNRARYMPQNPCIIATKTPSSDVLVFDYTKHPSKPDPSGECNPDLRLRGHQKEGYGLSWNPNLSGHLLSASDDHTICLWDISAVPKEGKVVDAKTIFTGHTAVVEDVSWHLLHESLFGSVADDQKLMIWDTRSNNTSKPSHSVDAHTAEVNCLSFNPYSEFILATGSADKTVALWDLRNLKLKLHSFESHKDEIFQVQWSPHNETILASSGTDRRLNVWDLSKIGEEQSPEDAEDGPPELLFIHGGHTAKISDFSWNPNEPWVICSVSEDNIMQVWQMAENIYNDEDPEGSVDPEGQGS
T1 sequence (Q6ZN18 whole entry partner): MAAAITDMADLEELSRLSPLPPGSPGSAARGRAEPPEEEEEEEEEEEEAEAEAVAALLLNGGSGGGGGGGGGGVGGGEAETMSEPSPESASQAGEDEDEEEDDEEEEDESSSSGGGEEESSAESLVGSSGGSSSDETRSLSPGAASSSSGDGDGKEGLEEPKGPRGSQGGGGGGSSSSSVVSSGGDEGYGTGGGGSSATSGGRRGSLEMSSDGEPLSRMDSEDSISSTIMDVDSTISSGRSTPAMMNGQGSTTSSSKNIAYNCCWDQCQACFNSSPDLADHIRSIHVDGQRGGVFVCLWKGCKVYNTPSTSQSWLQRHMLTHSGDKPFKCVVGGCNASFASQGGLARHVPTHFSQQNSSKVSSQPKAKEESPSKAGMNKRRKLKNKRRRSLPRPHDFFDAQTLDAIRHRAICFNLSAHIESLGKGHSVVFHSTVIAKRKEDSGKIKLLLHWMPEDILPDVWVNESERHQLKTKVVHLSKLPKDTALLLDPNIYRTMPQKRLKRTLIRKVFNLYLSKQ

In the case of `CSc1cc(C)[nH]c(=O)c1CNC(=O)c1cc(Cl)c2c(c1C)OC(C)(C1CCC(NC3(CF)COC3)CC1)O2` (single isomer, unassigned) [Example 11 (geometric isomer 1)], the IC50 (as a rule, the concentration needed to halve the response being measured) on PRC2 containing wt EZH2 [1] is 0.14 nM. The EC50 (commonly the concentration needed to bring the measured effect to its halfway point) in the series with H3K27me3 in Hela cells was determined as 1.3 nM. Also, growth with Karpas-422 cell lines was halved (GI50) at 8.6 nM. Also, in series [2], the Papp (as a rule, the rate of passage across a membrane or cell layer, normalised by area and donor concentration) at 2.5 h, 2 μM came to 5.3 ×10⁻⁶ cm/s; the efflux ratio (in general, a quotient of directional permeabilities that is used to spot active efflux) at 2.5 h, 2 μM stood at 1.3.

For `CSc1cc(C)[nH]c(=O)c1CNC(=O)c1cc(Cl)c2c(c1C)O[C@@](C)([C@H]1CC[C@H](N(C)C)CC1)O2` [Example 4], at PRC2 containing wt EZH2 [1], half-maximal inhibition (IC50) required 0.038 nM. The EC50 in the series on H3K27me3 in Hela cells worked out at 0.51 nM. It took 4 nM to inhibit growth with Karpas-422 cell lines by half (GI50). In series [2], the apparent permeability coefficient (Papp) at 2.5 h, 2 μM came to 0.62 ×10⁻⁶ cm/s and the efflux ratio at 2.5 h, 2 μM is 2.3.

On to `CSc1cc(C)[nH]c(=O)c1CNC(=O)c1cc(Cl)c2c(c1C)OC(C)(C1CCC(N3CC(F)(F)C3)CC1)O2` (single isomer, unassigned) [Example 7-Enantiomer 2], for which it took 0.12 nM to reach half-maximal inhibition on PRC2 containing wt EZH2 [1] (IC50). Moreover, the GI50 – broadly, the concentration that inhibits growth by half – in the series on Karpas-422 cell lines is 12 nM. The residence time on PRC2 containing wt EZH2 [3] was 1980 min. For the same compound, in series [2], the Papp at 2.5 h, 2 μM is 12 ×10⁻⁶ cm/s and the efflux ratio at 2.5 h, 2 μM worked out at 0.71.

`CSc1nc(C)[nH]c(=O)c1CNC(=O)c1cc(Cl)c2c(c1C)O[C@@](C)([C@H]1CC[C@H](N(C)C)CC1)O2` [Example 5] gave an IC50 against PRC2 containing wt EZH2 [1] of 0.054 nM. The same compound showed an EC50 in the series on H3K27me3 in Hela cells of 3.6 nM. Growth in the series with Karpas-422 cell lines was halved (GI50) at 22 nM. Moreover, in series [2], the Papp at 2.5 h, 2 μM stood at 1.1 ×10⁻⁶ cm/s and the efflux ratio at 2.5 h, 2 μM worked out at 3.6.
